From patent US10662164B2, “Non-beta lactam antibiotics” (University of Notre Dame du Lac, priority 2014, dated 2020)
In brackets after ≈: the same amount, converted by molar mass. Like-named read-outs stand apart in the source and are kept apart here.

How the values were obtained:
[1] = system: S. aureus ATCC 29213; test: MIC determination; format: cell-based, Staphylococcus aureus; conditions: for antibacterial activity in words (SAR, ring A derivatives): S. aureus ATCC 29213, compounds of Schemes 3-4; for MIC: Staphylococcus aureus; for antibacterial activity in words (SAR, C/D ring derivatives): S. aureus ATCC29213, second numbering, compounds of Scheme 6
[2] = system: E. faecium NCTC 7171; test: MIC determination; format: cell-based, Enterococcus faecium; conditions: for MIC: Enterococcus faecium
[3] = ATCC29213, Table 3.1 and SAR text, compounds of Schemes 2-4, read-out: S. aureus ATCC 29213 MIC
[4] = NCTC7171, Table 3.1, compounds of Schemes 2-4, read-out: E. faecium NCTC 7171 MIC
[5] = ATCC29213, read-out: S. aureus ATCC 29213 MIC
[6] = NCTC7171, read-out: E. faecium NCTC 7171 MIC
[7] = Table 3.1, compounds of Schemes 2-4

| SMILES | MIC [1, 3] [µg/mL] | MIC [2, 4] [µg/mL] | further results |
| --- | --- | --- | --- |
| Oc1ccccc1-c1nc(-c2ccc(Oc3ccccc3)cc2)no1 [Compound 97a] | > 128 | > 128 | antibacterial activity in words (SAR, ring A derivatives) [1]: failed to show significant activity |
| CCC(C)Nc1c[nH]nc1-c1nc(-c2ccc(Oc3ccc(C(F)(F)F)cc3)cc2)no1 (stereo not drawn) [Compound 105b] | > 128 | 128 (≈ 289 µM) | antibacterial activity in words (SAR, ring A derivatives) [1]: did not extend |
| Fc1ccc(-c2nc(-c3ccc(Oc4ccc(C(F)(F)F)cc4)cc3)no2)cc1 [Compound 80b] | > 1200 |  |  |
| N#Cc1c[nH]nc1-c1nc(-c2ccc(Oc3ccc(C(F)(F)F)cc3)cc2)no1 [Compound 67b] | 2 (≈ 5.03 µM) | > 128 | antibacterial activity in words (SAR, ring A derivatives) [1]: good activity |
| Oc1nc(-c2ccc(Oc3ccccc3)cc2)no1 [Compound 112a] | > 128 | > 128 | antibacterial activity in words (SAR, ring A derivatives) [1]: abolishes activity |
| Nc1ccc(-c2nc(-c3ccc(Oc4ccccc4)cc3)no2)cc1F [Compound 72a] |  |  | antibacterial activity in words (SAR, C/D ring derivatives) [1]: inactive; MIC [1, 5]: > 128 µg/mL; MIC [2, 6]: > 32 µg/mL |
| Oc1ccc(-c2nc(-c3ccc(Oc4ccc(C(F)(F)F)cc4)cc3)no2)cn1 [Compound 120b] | > 128 | 32 (≈ 80.1 µM) |  |
| c1ccc(Oc2ccc(-c3noc(-c4ccncc4)n3)cc2)cc1 [Compound 114a] | > 128 | 64 (≈ 203 µM) | antibacterial activity in words (SAR, ring A derivatives) [1]: No activity |
| C=CCOc1cc(N)ncc1-c1nc(-c2ccc(Oc3ccccc3)cc2)no1 [Compound 79a] | 8 (≈ 20.7 µM) | > 128 |  |
| O=[N+]([O-])c1cc(-c2nc(-c3ccc(Oc4ccc(F)cc4)cc3)no2)cnc1O [Compound 77c] | 8 (≈ 20.3 µM) | 4 (≈ 10.1 µM) |  |
| Oc1c(F)cc(-c2nc(-c3ccc(Oc4ccc(F)cc4)cc3)no2)cc1F [Compound 71c] | 8 (≈ 20.8 µM) | 4 (≈ 10.4 µM) |  |
| Cl.c1ccc(Oc2ccc(-c3noc(C4CCCN4)n3)cc2)cc1 (stereo not drawn) [Compound 132a] |  |  | E. faecium NCTC 7171 MIC [2, 7]: 64 µg/mL |
| CCOP(=O)(OCC)c1c[nH]nc1-c1nc(-c2ccc(Oc3ccc(C(F)(F)F)cc3)cc2)no1 [Compound 111b] |  |  | MIC [1, 5]: > 128 µg/mL; MIC [2, 6]: > 128 µg/mL |
| O=[N+]([O-])c1c[nH]nc1-c1nc(-c2ccc(Oc3ccc(F)cc3)cc2)no1 [Compound 63c] | 1 (≈ 2.72 µM) | 4 (≈ 10.9 µM) |  |
| FC(F)(F)c1ccc(Oc2ccc(-c3noc(-c4c[nH]c5ncccc45)n3)cc2)cc1 [Compound 125b] | > 128 | 32 (≈ 75.8 µM) |  |
| FC(F)(F)c1ccc(Oc2ccc(-c3noc(-c4n[nH]cc4NC4CCCCC4)n3)cc2)cc1 [Compound 106b] | > 128 | 128 (≈ 273 µM) | antibacterial activity in words (SAR, ring A derivatives) [1]: did not extend |
| O=C1C[C@H](c2nc(-c3ccc(Oc4ccc(C(F)(F)F)cc4)cc3)no2)CN1 [Compound 133b] |  | > 128 |  |
| FC(F)(F)c1ccc(Oc2ccc(-c3noc(-c4cnn[nH]4)n3)cc2)cc1 [Compound 117b] | 16 (≈ 42.9 µM) | > 128 | antibacterial activity in words (SAR, ring A derivatives) [1]: No activity |
| COc1ccc(-c2nc(-c3ccc(Oc4ccccc4)cc3)no2)cc1N [Compound 100a] | > 128 | > 128 |  |
| Oc1ccc(-c2nc(-c3ccc(Oc4ccccc4)cc3)no2)cc1F [Compound 70a] | 4 (≈ 11.5 µM) | 4 (≈ 11.5 µM) |  |
| Fc1ccc(Oc2ccc(-c3noc(-c4ccc5[nH]ccc5c4)n3)cc2)cc1 [Compound 75c] | 2 (≈ 5.39 µM) | 2 (≈ 5.39 µM) |  |
| Oc1ccc(-c2nc(-c3ccc(Oc4ccc(F)cc4)cc3)no2)cc1F [Compound 70c] | 2 (≈ 5.46 µM) | 2 (≈ 5.46 µM) |  |
| O=[N+]([O-])c1c[nH]c(-c2nc(-c3ccc(Oc4ccc(C(F)(F)F)cc4)cc3)no2)c1 [Compound 78b] | 8 (≈ 19.2 µM) | 64 (≈ 154 µM) | antibacterial activity in words (SAR, ring A derivatives) [1]: retained good activity |
| Fc1ccc(Oc2ccc(-c3noc(-c4ccc(Br)cc4)n3)cc2)cc1 [Compound 81c] | > 128 | > 128 |  |
| Nc1c[nH]nc1-c1nc(-c2ccc(Oc3ccccc3)cc2)no1 [Compound 64a] |  |  | antibacterial activity in words (SAR, C/D ring derivatives) [1]: retained activity; MIC [1, 5]: 16 µg/mL (≈ 50.1 µM); MIC [2, 6]: 32 µg/mL (≈ 100 µM) |
| O=[N+]([O-])c1c[nH]nc1-c1nc(-c2ccc(Oc3ccc(C(F)(F)F)cc3)cc2)no1 [Compound 63b, 5-(4-Nitro-1H-pyrazole-3-yl)-3-(4-(4-(trifluoromethyl)phenoxy)phenyl)-1,2,4-oxadiazole] | 2 (≈ 4.79 µM) | 2 (≈ 4.79 µM) |  |

| SMILES | MIC [1, 3] [µg/mL] | MIC [2, 4] [µg/mL] | further results |
| --- | --- | --- | --- |
| Ic1c[nH]nc1-c1nc(-c2ccc(Oc3ccccc3)cc2)no1 [62a] | 1 (≈ 2.32 µM) | 32 (≈ 74.4 µM) |  |
| Oc1ccc(-c2nc(-c3ccc(OC4CCCC4)cc3)no2)cc1 [DR-03-235] |  |  | MIC S. aureus ATCC 29213 MH ([1]; Mueller Hinton broth, Table 2.2, in µg/mL): 0.5-1 |
| NC(=O)c1ccc(-c2nc(-c3ccc(Oc4ccc(F)cc4)cc3)no2)cc1 [Compound 88c] | > 128 | 64 (≈ 171 µM) | antibacterial activity in words (SAR, ring A derivatives) [1]: failed to show significant activity |
| CC(C)c1cc(-c2nc(-c3ccc(Oc4ccc(F)cc4)cc3)no2)[nH]n1 [Compound 119c] | > 128 | 64 (≈ 176 µM) | antibacterial activity in words (SAR, ring A derivatives) [1]: No activity |
| Nc1ccc(-c2nc(-c3ccc(Oc4ccccc4)cc3)no2)c(O)c1 [Compound 98a] | > 128 | > 128 |  |
| Cl.c1ccc(Oc2ccc(-c3noc(C4CCNCC4)n3)cc2)cc1 [Compound 128a] |  |  | E. faecium NCTC 7171 MIC [2, 7]: 16 µg/mL |
| Fc1ccc(Oc2ccc(-c3noc(-c4c[nH]c5ncccc45)n3)cc2)cc1 [Compound 125c] | > 128 | 64 (≈ 172 µM) |  |
| COc1ccc(-c2nc(-c3ccc(Oc4ccc(C(F)(F)F)cc4)cc3)no2)cc1OC [Compound 101b] | > 128 | > 128 |  |
| Oc1ccc(Cc2nc(-c3ccc(Oc4ccccc4)cc3)no2)cc1 [Compound 74a] |  | 8 (≈ 23.2 µM) |  |
| Oc1cccc(-c2nc(-c3ccc(Oc4ccccc4)cc3)no2)c1 [Compound 95a] | > 128 | > 128 | antibacterial activity in words (SAR, ring A derivatives) [1]: failed to show significant activity |
| Oc1ccc(-c2nc(-c3ccc(Oc4ccc(C(F)(F)F)cc4)cc3)no2)cc1F [Compound 70b] |  |  | S. aureus ATCC 29213 MIC [1, 7]: 2 µg/mL; E. faecium NCTC 7171 MIC [2, 7]: 2 µg/mL |
| Nc1ccc(-c2nc(-c3ccc(Oc4ccccc4)cc3)no2)cc1 [Compound 58a] |  |  | MIC [1, 5]: 4 µg/mL (≈ 12.1 µM); MIC [2, 6]: 2 µg/mL (≈ 6.07 µM) |
| Oc1ccc(-c2nc(-c3ccc(Oc4ccc(F)cc4)cc3)no2)cc1O [Compound 69c] | 4 (≈ 11 µM) | 8 (≈ 22 µM) |  |
| c1ccc(Oc2ccc(-c3noc(C4CCOCC4)n3)cc2)cc1 [Compound 131a] | > 128 | > 128 |  |
| Nc1c[nH]c(-c2nc(-c3ccc(Oc4ccc(F)cc4)cc3)no2)c1 [Compound 126c] | 128 (≈ 381 µM) | 64 (≈ 190 µM) | antibacterial activity in words (SAR, ring A derivatives) [1]: No activity |
| Nc1cc(-c2nc(-c3ccc(Oc4ccc(F)cc4)cc3)no2)ccc1O [Compound 92c] | > 128 | 128 (≈ 352 µM) | antibacterial activity in words (SAR, ring A derivatives) [1]: failed to show significant activity |
| FC(F)(F)c1ccc(Oc2ccc(-c3noc(-c4cc[nH]n4)n3)cc2)cc1 [Compound 102b] | > 128 | 64 (≈ 172 µM) |  |
| CCOP(=O)(OCC)c1ccc(-c2nc(-c3ccc(Oc4ccc(F)cc4)cc3)no2)cc1 [Compound 85c] |  |  | MIC [1, 5]: > 128 µg/mL; MIC [2, 6]: > 128 µg/mL |
| O=[N+]([O-])c1cc(-c2nc(-c3ccc(Oc4ccc(C(F)(F)F)cc4)cc3)no2)cnc1O [Compound 77b] | 8 (≈ 18 µM) | 4 (≈ 9 µM) |  |
| O=C1C[C@@H](c2nc(-c3ccc(Oc4ccc(C(F)(F)F)cc4)cc3)no2)CN1 [Compound 134b] |  | > 128 |  |
| FC(F)(F)c1ccc(Oc2ccc(-c3noc(-c4ccc(Br)cc4)n3)cc2)cc1 [Compound 81b] | > 1000 |  |  |
| Cl.NC(Cc1ccccc1)c1nc(-c2ccc(Oc3ccccc3)cc2)no1 (stereo not drawn) [Compound 136a] |  |  | E. faecium NCTC 7171 MIC [2, 7]: >128 µg/mL |
| Fc1ccc(-c2nc(-c3ccc(Oc4ccccc4)cc3)no2)cc1 [Compound 80a] | > 1000 |  |  |
| O=c1cc(-c2nc(-c3ccc(Oc4ccc(C(F)(F)F)cc4)cc3)no2)[nH]c(=O)[nH]1 [Compound 135b] |  | > 128 |  |
| CC(=O)Nc1ccc(-c2nc(-c3ccc(Oc4ccc(C(F)(F)F)cc4)cc3)no2)cc1 [Compound 83b] | 256 (≈ 583 µM) |  |  |
